Results published in patent US20150203812A1, “Inhibitors of Voltage Gated Ion Channels” (priority 2014, published 2015).

Molecular target: T1, human Hv1 channel (Homo sapiens, UniProt Q96D96)
T1 construct: expressed in transfected cells; host or cells: Xenopus oocytes (cRNA injection, pGEMHE vector)
T1 sequence (Q96D96 1-273): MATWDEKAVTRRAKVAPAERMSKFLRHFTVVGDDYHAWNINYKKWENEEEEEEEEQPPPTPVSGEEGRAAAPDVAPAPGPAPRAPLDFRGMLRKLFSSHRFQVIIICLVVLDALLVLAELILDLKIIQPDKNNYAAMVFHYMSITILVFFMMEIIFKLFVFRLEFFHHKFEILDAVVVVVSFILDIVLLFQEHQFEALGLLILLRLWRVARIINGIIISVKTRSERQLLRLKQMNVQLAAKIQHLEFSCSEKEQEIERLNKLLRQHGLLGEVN
Experiment: Patch-clamp assay of Hv1 proton transport inhibition in Xenopus oocytes expressing human Hv1
Format: cell-based
Procedure: Plasmids were linearized with either NheI or SphI restriction enzymes (New England Biolabs) before in vitro transcription. RNA synthesis was carried out with a T7 mMessage mMachine transcription kit (Ambion). […] The linearized plasmid was transcribed with SP6 RNA polymerase. cRNAs were injected in Xenopus oocytes (50 nl per cell, 0.3-1.5 μg/μl) 1-3 days before the electro-physiological measurements. Cells were kept at 18° C. in ND96 medium containing 96 mM NaCl, 2 mM KCl, 1.8 mM CaCl2, 1 mM MgCl2, 10 mM HEPES, 5 mM pyruvate, 100 μg/ml gentamycin (pH 7.2).
The bath solution contained 100 mM 2-(N-morpholino)ethanesulphonic acid (MES), 30 mM tetraethylammonium (TEA) methanesulfonate, 5 mM TEA chloride, 5 mM ethyleneglycol-bis(2-ami-noethyl)-N,N,N0,N0-tetra-acetic acid (EGTA), adjusted to pH 6.0 with TEA hydroxide. For recordings carried out in the absence of pH gradient (pHi=pHo=6.0), the pipette solution had the same composition of the bath solution. Some of the measurements were performed in the presence of a pH gradient (pHi=6.0, pHo=7.5). In these cases the extracellular solution contained 100 mM 4-(2-hydroxyethyl)-1-piperazineethanesulfonic acid (HEPES), 40 mM TEA methanesulfonate, 5 mM TEA chloride, adjusted to pH 7.5 with TEA hydroxide. Native proton currents in BV-2, RAW264.7, and THP-1 were measured in whole-cell configuration with an intracellular solution containing: 90 mM TEA methanesulfonate, 100 mM MES, 2 mM MgCl2, 2 mM EGTA, adjusted to pH 6.0 with TEA hydroxide. The extracellular solution contained: 85 mM TEA methanesulfonate, 100 mM HEPES, 3 mM CaCl2, 1 mM EGTA, adjusted to pH 7.5 with TEA hydroxide. All measurements were performed at 22° C.±2° C. Pipettes had 2-4 M access resistance. Current traces were filtered at 1 kHz, sampled at 5 kHz and analyzed with Clampfit10.2 (Molecular Devices) and Origin8.1 (OriginLab).

inhibition at 200 µM (200 μM) [%] | Structure (SMILES) | other results
6.8 ± 2.25 | CN(C)C(=N)NC(=N)N [1,1-dimethylbiguanide] | 
81 | N=C(N)Nc1nc2ccccc2s1 [1-(1,3-benzothiazol-2-yl)guanidine] | 
1 ± 1 | N=C(N)Nc1nc2ccccc2o1 [1-(1,3-benzoxazol-2-yl)guanidine] | 
 | COc1ccc(CCN2CCC(Nc3nc4ccccc4n3Cc3ccc(F)cc3)CC2)cc1 [1-[(4-fluorophenyl)methyl]-N-[1-[2-(4-methoxyphenyl)ethyl]-4-piperidylibenzoimidazol-2-amine] | Hv1 proton transport % inhibition (200 μM): 67 ± 6%
29.8 ± 2.5 | Nc1nc2ccccc2[nH]1 [2-aminobenzimidazole] | 
21.2 ± 5.1 | Nc1ncc[nH]1 [2-aminoimidazole] | 
2 ± 1 | Nc1ncccn1 [2-aminopyrimidine] | 
31.7 ± 0.7 | Cc1nc(NC(=N)N)nc2ccccc12 [2-guanidino-4-methylquinazoline] | 
82.6 ± 2.25 | N=C(N)Nc1nc2ccccc2[nH]1 [2-guanidinobenzimidazole] | 
 | NC(N)=Nc1nc(CSCCC(N)=NS(N)(=O)=O)cs1 [3-([2-(diaminomethyleneamino)thiazol-4-yllmethylthio)-N′-sulfamoylpropanimidamide] | Hv1 proton transport % inhibition (200 μM): 21.5 ± 2.7%
 | N=C(N)Nc1nc2ccc([N+](=O)[O-])cc2[nH]1 [5-nitro-2-guanidinobenzimidazole] | inhibition at 4 µM (4 μM): 57 ± 10%
 | CN1CC(=O)NC1=N [Creatinine, reference compound] | Hv1 proton transport % inhibition (600 μM): 0%
 | Nc1nnc(Nc2ccc(Cl)cc2)[nH]1 [N(3)-(4-chlorophenyl)-4H-1,2,4-triazole-3,5-diamine] | inhibition at 40 µM (40 μM): 28 ± 7%
0.5 ± 1 | CC(=O)N(C(=N)NC(=N)N)c1ccccc1 [N-(guanidino-iminomethyl)-N-phenylacetamide] | 
4.3 ± 2.3 | N=C(N)NN [aminoguanidine, amino-guanidine] | 
31 | CCOC(=O)c1sc(NC(=N)N)nc1C [ethyl 2-[[amino(imino)methyl]amino]-4-methyl-1,3-thiazole-5-carboxylate] | 
39.4 ± 3.4 | CCOC(=O)c1nc(NC(=N)N)sc1C [ethyl 2-[[amino(imino)methyl]amino]-5-methyl-1,3-thiazole-4-carboxylate] | 
 | CCOC(=O)Cc1sc(NC(=N)N)nc1C [ethyl (2-[[amino(imino)methyl]amino1-4-methyl-1,3-thiazol-5-yl)acetate] | Hv1 proton transport % inhibition (200 μM): 68.2 ± 2.2%
73 ± 3 | CC(C)OC(=O)CCCCC(=NNC(=N)N)c1ccccc1 [isopropyl 6-(guanidinoimino)-6-phenylhexanoate] | 

Structure (SMILES) | inhibition at 200 µM (200 μM) [%] | other results
N=C(N)NCCCCN [agmatine] | 18.5 ± 1.5 | 
